Measured values from the Deep4Chem optical property database.
Values belong to the compound of their own block, whether it stands above or below them.

Assay: solvent given as SMILES

SMILES: N#Cc1c(-n2c3ccc(-c4ccccc4)cc3c3cc(-c4ccccc4)ccc32)c(-n2c3ccc(-c4ccccc4)cc3c3cc(-c4ccccc4)ccc32)c(C#N)c(-n2c3ccc(-c4ccccc4)cc3c3cc(-c4ccccc4)ccc32)c1-n1c2ccc(-c3ccccc3)cc2c2cc(-c3ccccc3)ccc21
- fluorescence lifetime (in Cc1ccccc1): 9 ns

SMILES: C=Cc1ccc(OC)cc1
- fluorescence lifetime (in C1CCCCC1): 6.6 ns
- fluorescence lifetime (in CC#N): 6.3 ns

SMILES: c1ccc(N2N=C(c3c4ccccc4cc4ccccc34)CC2c2ccc3ccc4cccc5ccc2c3c45)cc1 (stereo not drawn)
- fluorescence lifetime (in ClCCl): 1.17 ns

SMILES: CN(C)c1ccc(C(=Cc2ccc(C=O)cc2)c2ccc(N(C)C)cc2)cc1
- fluorescence lifetime (in C1CCOC1): 7 ns

SMILES: CCC1(CC)c2ccccc2-c2c1c1c(c3c2C(CC)(CC)c2cc(N(c4ccccc4)c4ccccc4)ccc2-3)C(CC)(CC)c2cc(N(c3ccccc3)c3ccccc3)ccc2-1
- fluorescence lifetime (in C1CCOC1): 1.9 ns

SMILES: C[Si]1(C)c2cc(-c3ccc(-c4cccs4)s3)ccc2C=Cc2ccc(-c3ccc(-c4cccs4)s3)cc21
- fluorescence lifetime (in ClCCl): 0.94 ns

SMILES: CN(C)c1ccc(/C=C/C=C2\CC/C(=C\c3ccc(N(C)C)cc3)C2=O)cc1
- fluorescence lifetime (in C1CCOC1): 0.42 ns
- fluorescence lifetime (in CC#N): 0.91 ns
- fluorescence lifetime (in CC(C)=O): 1.15 ns
- fluorescence lifetime (in CC(C)O): 1.24 ns
- fluorescence lifetime (in CCCCO): 1.25 ns
- fluorescence lifetime (in CCCCOC(C)=O): 0.63 ns
- fluorescence lifetime (in CCCO): 1.13 ns
- fluorescence lifetime (in CCO): 0.82 ns
- fluorescence lifetime (in CCOC(=O)c1ccccc1): 0.83 ns
- fluorescence lifetime (in CCOC(C)=O): 0.71 ns
- fluorescence lifetime (in CCOCC): 0.31 ns
- fluorescence lifetime (in CN(C)C=O): 1.32 ns
- fluorescence lifetime (in CO): 0.3 ns
- fluorescence lifetime (in CS(C)=O): 1.4 ns
- fluorescence lifetime (in Cc1ccccc1): 0.36 ns
- fluorescence lifetime (in ClC(Cl)(Cl)Cl): 0.29 ns
- fluorescence lifetime (in ClC(Cl)Cl): 0.98 ns
- fluorescence lifetime (in ClCCl): 1.13 ns
- fluorescence lifetime (in Clc1ccccc1Cl): 0.83 ns
- fluorescence lifetime (in S=C=S): 0.43 ns
- fluorescence lifetime (in c1ccccc1): 0.38 ns
- fluorescence lifetime (in c1ccncc1): 1.26 ns

SMILES: CCCCCCCCOC(=O)c1ccc(-c2cc3ccc4cc(-c5ccc(C(=O)OCCCCCCCC)cc5)cc5ccc(c2)c3c45)cc1
- fluorescence lifetime (in Cc1ccccc1): 49 ns

SMILES: N#Cc1cc2ccc([O-])cc2oc1=O
- fluorescence lifetime (in O): 3.96 ns

SMILES: COc1ccc(-c2nc(-c3ccc(-c4nc(-c5ccc(OC)cc5)c(-c5ccc(OC)cc5)[nH]4)s3)[nH]c2-c2ccc(OC)cc2)cc1
- fluorescence lifetime (in CC#N): 1.42 ns

SMILES: CNc1ccc(/C=C/C#N)cc1
- fluorescence lifetime (in C1CCCCC1): 0.6 ns
- fluorescence lifetime (in CC#N): 0.6 ns
- fluorescence lifetime (in O): 1.13 ns

SMILES: CC[B-]1(CC)c2cccc3c4c5c(cccc5c(c23)-c2cccc(C)[n+]21)[B-](CC)(CC)[n+]1c(C)cccc1-4
- fluorescence lifetime (in ClCCl): 11.1 ns

SMILES: CC(C)(C)c1ccc(N(c2ccccc2)c2ccc3ccc4c(N(c5ccccc5)c5ccc(C(C)(C)C)cc5)ccc5ccc2c3c54)cc1
- fluorescence lifetime (in ClCCl): 6.2 ns

SMILES: O=C1c2ccc(N(c3ccccc3)c3ccccc3)cc2C(=O)c2ccc(N(c3ccccc3)c3ccccc3)cc21
- fluorescence lifetime (in Cc1ccccc1): 5.3 ns
- fluorescence lifetime (in c1ccc2c(c1)c1ccccc1n2-c1ccc(-c2ccc(-n3c4ccccc4c4ccccc43)cc2)cc1): 4.9 ns

Results, then the compound that gave them:

- fluorescence lifetime (in c1cc(-c2cccc(-n3c4ccccc4c4ccccc43)c2)cc(-n2c3ccccc3c3ccccc32)c1): 54 ns
SMILES: CC(C)c1cc(C(C)C)c(B2c3cc(N4c5ccccc5Oc5ccccc54)ccc3N(c3ccccc3)c3ccc(N4c5ccccc5Oc5ccccc54)cc32)c(C(C)C)c1

- fluorescence lifetime (in C1CCCCC1): 2.6 ns
- fluorescence lifetime (in ClCCl): 2.6 ns
SMILES: CC(C)[Si]1(C(C)C)c2cc(C#N)ccc2-c2ccc(N(C)C)cc21

- fluorescence lifetime (in C1CCOC1): 4.7 ns
SMILES: c1ccc(/C(=C(\c2ccccc2)c2ccccc2-c2ccccc2)c2ccccc2-c2ccccc2)cc1

- fluorescence lifetime (in CCCCCC): 67.8 ns
- fluorescence lifetime (in CO): 132 ns
- fluorescence lifetime (in ClCCl): 79.1 ns
SMILES: Cc1ccc2ccc3cccc4ccc1c2c34

- fluorescence lifetime (in CC#N): 2.4 ns
SMILES: CC(=O)OC[C@H]1O[C@@H](OCC#Cc2ccc(C3=C4C(C)=CC(/C=C/c5ccc(N(C)C)cc5)=[N+]4[B-](F)(F)n4c(/C=C/c5ccc(N(C)C)cc5)cc(C)c43)cc2)[C@H](OC(C)=O)C(OC(C)=O)[C@@H]1OC(C)=O (stereo partly drawn)

- fluorescence lifetime (in ClC(Cl)Cl): 0.72 ns
SMILES: CC[N+](CC)=c1ccc2c(-c3ccccc3C(=O)O)c3cc4c(-c5ccccc5C(=O)O)c5ccc(=[N+](CC)CC)cc-5oc4cc3oc-2c1

- fluorescence lifetime (in C1CCOC1): 2.42 ns
- fluorescence lifetime (in C1COCCO1): 2.33 ns
- fluorescence lifetime (in CC#N): 2.24 ns
- fluorescence lifetime (in CC(C)O): 1.98 ns
- fluorescence lifetime (in CCO): 1.78 ns
- fluorescence lifetime (in CCOC(C)=O): 2.35 ns
- fluorescence lifetime (in CN(C)C=O): 2.45 ns
- fluorescence lifetime (in CO): 1.64 ns
- fluorescence lifetime (in CS(C)=O): 2.45 ns
- fluorescence lifetime (in O): 3.17 ns
SMILES: NS(=O)(=O)c1ccc(N2N=C(c3ccc(O)cc3)CC2c2ccc(F)cc2)cc1 (stereo not drawn)

- fluorescence lifetime (in CCCCCC): 5.54 ns
- fluorescence lifetime (in CCCCCCCCO): 4.91 ns
- fluorescence lifetime (in CCOC(C)=O): 5.21 ns
- fluorescence lifetime (in CN(C)C=O): 4.8 ns
SMILES: CC1=CC(C)=[N+]2C1=Cc1c3ccccc3c(C#Cc3ccsc3)n1[B-]2(F)F

- fluorescence lifetime (in ClC(Cl)Cl): 1.21 ns
SMILES: F[B-]1(F)OC(c2ccc(Br)cc2)=Cc2ccc3ccccc3[n+]21
